Data published in PMC4188015 (Acta Crystallographica Section D: Biological Crystallography, 2014).
Like-named read-outs stand apart in the source and are kept apart here. Each block holds one substance with its values, some of them ahead of it.

Assays:
[1] = test system: both rat IR-A and IR-B isoforms; assay: Receptor binding, rat adipocyte plasma membranes
Protocol: Receptor-binding studies with the insulin receptor in plasma membranes containing both rat IR-A and IR-B isoforms prepared from epididymal adipose tissue of adult male Wistar rats were performed and analyzed according to Žáková et al. (2008[▶]). Binding data were analyzed using GraphPad Prism 5. Half-maximal inhibition values of binding of [^125I]-insulin to the receptor (IC50) were obtained using a nonlinear regression method and a one-site fitting program.

[2] = Isothermal microcalorimetry (ITC) of dimerization (dimer-monomer dissociation); type: physicochemical; conditions: mean ± spread, n = 3, read-out: K diss (dimer↔monomer)
Protocol: Investigations of the dimerization abilities of selected insulin analogues were performed as described in detail previously (Antolikova et al., 2011[▶]).

[3] = test system: both rat IR-A and IR-B isoforms; conditions: rat adipocytes, ref Jiracek et al. (2010), cited from earlier work
Excerpt: (§1) In the cases of [PheB26]-insulin and [GlyB26]-insulin, we aimed to investigate the structural consequences of the loss of the TyrB26 side-chain hydroxyl group or the whole TyrB26 side chain, respectively. The affinities of the analogues for the IR-A isoform (IM-9 lymphocytes) and of selected ...

IR = conditions: ref Žáková et al., 2013; cited from earlier work
Excerpt: as §1, with “The full-length insulin B26-site mutants AsnB26, AspB26, PheB26, GlnB26 and GlyB26 have been prepared and characterized. […] In” for “In”

IR-A = conditions: ref Morcavallo et al., 2012; read-out: K d for IR-A; cited from earlier work
Excerpt: (§2) Extensive mutagenesis and cross-linking studies of both insulin and IR led to the discovery and mapping of two sites on the IR that are responsible for engaging with the hormone. […] The hormone–receptor interaction events are comp ...

IR-B = conditions: single mutation; ref Glendorf et al. (2011); cited from earlier work
Excerpt: The IR-B:IR-A specificity ratio of insulin analogues is of considerable interest owing to IR-B being the dominant (∼90–95%) receptor isoform in the liver (Moller et al., 1989[▶]). This, together with the anatomic proximity of the pancreas and the liver (short hepatic portal vein connectivity), makes the liver the major glucose homeostatic organ.

[4] = ITC; n = 8; ref Antolikova et al. (2011); listed as wild-type human insulin; read-out: K diss (dimer↔monomer); cited from earlier work
IR site 2 = conditions: ref Kiselyov et al., 2009; read-out: K d, IR low-affinity site 2; cited from earlier work
Excerpt: as §2

Potency (relative receptor-binding affinity), rat IR-A and IR-B ([1]; (IC50 of human insulin/IC50 of analogue) × 100, rat adipocytes): ~70%
IC50 ([1]; half-maximal inhibition of binding of human 125I-TyrA14 insulin, rat adipose plasma membranes, mean ± SE (n), SEM, read-out: IC50 ± SE for both rat IR-A and IR-B in rat adipocytes): 1.16 ± 0.12 nM
Substance: [GlyB26]-insulin

Kd [2]: 27200 ± 7400 nM
Substance: [PheB26]-insulin
Potency (relative receptor-binding affinity), rat IR-A and IR-B [3]: 46 ^¶ %
Potency (relative receptor-binding affinity), rat IR-A and IR-B ([3]; listed as PheB26): less than 50%

Substance: [GluB26,LysB28,ProB29]-insulin
binding affinity relative to human insulin (IR): 193%

Substance: insulin-like growth factor II [IGF-II]
Kd (IR-A): ~4 nM

Substance: [AsnB25]-insulin
IR-B specificity (IR-B): doubling of the IR-B specificity

Substance: Human insulin
Kd [4]: ~9000 nM
Kd (IR site 2): ~400 nM
